Test results taken from patent US20230364070A1, “PYRROLO[3,2-C]PYRIDIN-4-ONE DERIVATIVES USEFUL IN THE TREATMENT OF CANCER” (Scorpion Therapeutics, Inc., priority 2020, published 2023).

Legend:
Type in all cases: cell-based
[1] = molecular target: T1, Ba/F3 cells with EGFR exon 20 ASV Ins V769_D770 (Homo sapiens, UniProt P00533, INS769ASV); assay: EGFR activity: Ba/F3 cell viability (CellTiter-Glo, 72 h), EGFR exon 20 ASV insertion; conditions: EGFR exon 20 ASV Ins V769_D770, cell viability, read-out: BaF3 ASV IC50
T1 construct: expressed in transfected cells; host or cells: Ba/F3 (murine pro-B cells), retroviral transduction, puromycin selection, IL3-independent pool

pEGFR in CUTO14 cells = molecular target: T2, pEGFR in CUTO14 cells (Homo sapiens, UniProt P00533, DUP767-769); assay: Inhibitor activity on EGFR phosphorylation (pEGFR AlphaLISA, 2 h), CUTO14 cells
T2 construct: endogenous in cells; host or cells: CUTO14 cells
Procedure: CUTO14 cells were obtained from Dr. Robert C. Doebele at the University of Colorado.
Shake 350 rpm for 1 hr in the dark • 3.4 Prepare donor mix under low light conditions prior to use. Dispense 5 μL of donor mix to all the wells. Mix well on the shaker, seal and wrap in aluminum foil and incubate 1.5 hrs at room temperature in the dark • 3.5 Transfer 18.5 μL mixture to OptiPlate 384, and read using an Envision.

[2] = molecular target: T3, Ba/F3 cells with EGFR exon 20 NPG Ins D770_N771 (Homo sapiens, UniProt P00533, INS770NPG); assay: EGFR activity: Ba/F3 cell viability (CellTiter-Glo, 72 h), EGFR exon 20 NPG insertion; conditions: EGFR exon 20 NPG Ins D770_N771, cell viability, read-out: BaF3 NPG IC50
T3 construct: expressed in transfected cells; host or cells: Ba/F3 (murine pro-B cells), retroviral transduction, puromycin selection, IL3-independent pool

Ba/F3 cells with EGFR WT = molecular target: T4, Ba/F3 cells with EGFR WT (Homo sapiens, UniProt P00533); assay: EGFR activity: Ba/F3 cell viability (CellTiter-Glo, 72 h), EGFR WT; conditions: read-out: BaF3 WT IC50
T4 construct: expressed in transfected cells; host or cells: Ba/F3 (murine pro-B cells), retroviral transduction, puromycin selection, maintained with EGF

[3] = molecular target: T5, pEGFR in Ba/F3 cells expressing EGFR exon 20 NPG Ins D770_N771 (Homo sapiens, UniProt P00533, INS770NPG); assay: Inhibitor activity on EGFR phosphorylation (pEGFR AlphaLISA, 2 h), Ba/F3 EGFR exon 20 NPG insertion; conditions: Ba/F3 EGFR exon 20 NPG Ins D770_N771
T5 construct: expressed in transfected cells; host or cells: Ba/F3 (murine pro-B cells), retroviral transduction, puromycin selection, IL3-independent pool

[4] = molecular target: T6, pEGFR in Ba/F3 cells expressing EGFR exon 20 ASV Ins V769_D770 (Homo sapiens, UniProt P00533, INS769ASV); assay: Inhibitor activity on EGFR phosphorylation (pEGFR AlphaLISA, 2 h), Ba/F3 EGFR exon 20 ASV insertion; conditions: Ba/F3 EGFR exon 20 ASV Ins V769_D770
T6 construct: expressed in transfected cells; host or cells: Ba/F3 (murine pro-B cells), retroviral transduction, puromycin selection, IL3-independent pool

T3 sequence (P00533 with tags, fused parts or gaps INS770NPG): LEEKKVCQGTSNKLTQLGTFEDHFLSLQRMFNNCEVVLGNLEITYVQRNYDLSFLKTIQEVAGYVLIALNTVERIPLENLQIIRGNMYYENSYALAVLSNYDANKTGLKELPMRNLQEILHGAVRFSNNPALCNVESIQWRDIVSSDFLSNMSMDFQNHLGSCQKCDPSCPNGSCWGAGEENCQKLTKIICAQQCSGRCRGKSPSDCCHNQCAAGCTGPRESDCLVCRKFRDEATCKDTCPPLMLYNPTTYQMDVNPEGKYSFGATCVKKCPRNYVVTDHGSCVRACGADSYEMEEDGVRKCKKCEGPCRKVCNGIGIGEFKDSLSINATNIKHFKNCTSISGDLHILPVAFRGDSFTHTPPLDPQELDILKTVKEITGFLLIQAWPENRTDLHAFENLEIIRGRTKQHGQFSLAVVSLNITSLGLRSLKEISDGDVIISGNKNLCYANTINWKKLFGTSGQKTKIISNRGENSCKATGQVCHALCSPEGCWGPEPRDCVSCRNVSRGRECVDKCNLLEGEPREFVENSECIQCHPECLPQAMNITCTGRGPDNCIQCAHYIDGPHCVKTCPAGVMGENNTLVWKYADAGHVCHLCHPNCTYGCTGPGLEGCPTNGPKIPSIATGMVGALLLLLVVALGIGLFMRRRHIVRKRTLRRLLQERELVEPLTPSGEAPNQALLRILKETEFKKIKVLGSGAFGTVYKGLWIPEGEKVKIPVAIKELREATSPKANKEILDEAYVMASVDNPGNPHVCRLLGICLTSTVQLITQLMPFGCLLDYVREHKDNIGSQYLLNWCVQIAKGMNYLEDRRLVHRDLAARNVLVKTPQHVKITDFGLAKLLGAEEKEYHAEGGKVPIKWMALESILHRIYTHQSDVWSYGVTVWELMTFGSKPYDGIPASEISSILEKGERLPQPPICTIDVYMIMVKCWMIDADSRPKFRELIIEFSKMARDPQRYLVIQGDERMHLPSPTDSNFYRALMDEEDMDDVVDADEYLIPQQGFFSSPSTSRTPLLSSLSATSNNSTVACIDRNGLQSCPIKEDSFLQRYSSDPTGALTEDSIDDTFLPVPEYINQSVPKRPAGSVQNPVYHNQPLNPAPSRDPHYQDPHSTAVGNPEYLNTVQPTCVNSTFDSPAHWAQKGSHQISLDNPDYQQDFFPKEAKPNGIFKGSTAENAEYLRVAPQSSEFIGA
T5 sequence (P00533 with tags, fused parts or gaps INS770NPG): as above
T4 sequence (P00533 25-1210): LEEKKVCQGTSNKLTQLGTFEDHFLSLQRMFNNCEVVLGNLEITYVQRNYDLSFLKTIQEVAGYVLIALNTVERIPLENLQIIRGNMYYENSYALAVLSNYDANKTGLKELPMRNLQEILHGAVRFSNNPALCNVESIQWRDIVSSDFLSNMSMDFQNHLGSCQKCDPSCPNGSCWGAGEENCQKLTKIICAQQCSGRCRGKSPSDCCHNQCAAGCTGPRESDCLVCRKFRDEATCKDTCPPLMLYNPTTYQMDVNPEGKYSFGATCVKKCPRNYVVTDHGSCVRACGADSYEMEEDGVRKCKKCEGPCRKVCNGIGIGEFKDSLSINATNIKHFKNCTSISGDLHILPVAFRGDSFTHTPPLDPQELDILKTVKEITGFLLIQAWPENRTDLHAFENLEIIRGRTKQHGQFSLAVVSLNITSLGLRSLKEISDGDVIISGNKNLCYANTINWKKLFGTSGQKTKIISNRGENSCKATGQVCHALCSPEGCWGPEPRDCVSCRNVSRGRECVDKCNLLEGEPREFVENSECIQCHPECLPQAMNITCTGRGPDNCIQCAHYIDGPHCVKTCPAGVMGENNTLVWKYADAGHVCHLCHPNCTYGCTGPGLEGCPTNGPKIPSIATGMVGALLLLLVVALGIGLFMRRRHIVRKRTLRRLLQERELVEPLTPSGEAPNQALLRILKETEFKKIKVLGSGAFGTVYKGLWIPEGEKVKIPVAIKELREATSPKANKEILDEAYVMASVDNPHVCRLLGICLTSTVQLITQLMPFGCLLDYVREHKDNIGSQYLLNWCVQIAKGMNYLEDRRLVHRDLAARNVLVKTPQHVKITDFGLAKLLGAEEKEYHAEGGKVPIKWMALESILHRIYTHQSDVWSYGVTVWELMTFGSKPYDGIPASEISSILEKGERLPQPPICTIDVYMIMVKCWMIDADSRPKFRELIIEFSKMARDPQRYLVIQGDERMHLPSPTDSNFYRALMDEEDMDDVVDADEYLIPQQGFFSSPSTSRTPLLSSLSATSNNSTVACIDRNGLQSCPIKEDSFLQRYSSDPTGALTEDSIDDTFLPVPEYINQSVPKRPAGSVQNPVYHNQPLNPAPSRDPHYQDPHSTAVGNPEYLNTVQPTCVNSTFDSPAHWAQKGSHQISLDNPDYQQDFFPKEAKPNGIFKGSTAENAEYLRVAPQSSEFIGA
T2 sequence (P00533 with tags, fused parts or gaps DUP767-769): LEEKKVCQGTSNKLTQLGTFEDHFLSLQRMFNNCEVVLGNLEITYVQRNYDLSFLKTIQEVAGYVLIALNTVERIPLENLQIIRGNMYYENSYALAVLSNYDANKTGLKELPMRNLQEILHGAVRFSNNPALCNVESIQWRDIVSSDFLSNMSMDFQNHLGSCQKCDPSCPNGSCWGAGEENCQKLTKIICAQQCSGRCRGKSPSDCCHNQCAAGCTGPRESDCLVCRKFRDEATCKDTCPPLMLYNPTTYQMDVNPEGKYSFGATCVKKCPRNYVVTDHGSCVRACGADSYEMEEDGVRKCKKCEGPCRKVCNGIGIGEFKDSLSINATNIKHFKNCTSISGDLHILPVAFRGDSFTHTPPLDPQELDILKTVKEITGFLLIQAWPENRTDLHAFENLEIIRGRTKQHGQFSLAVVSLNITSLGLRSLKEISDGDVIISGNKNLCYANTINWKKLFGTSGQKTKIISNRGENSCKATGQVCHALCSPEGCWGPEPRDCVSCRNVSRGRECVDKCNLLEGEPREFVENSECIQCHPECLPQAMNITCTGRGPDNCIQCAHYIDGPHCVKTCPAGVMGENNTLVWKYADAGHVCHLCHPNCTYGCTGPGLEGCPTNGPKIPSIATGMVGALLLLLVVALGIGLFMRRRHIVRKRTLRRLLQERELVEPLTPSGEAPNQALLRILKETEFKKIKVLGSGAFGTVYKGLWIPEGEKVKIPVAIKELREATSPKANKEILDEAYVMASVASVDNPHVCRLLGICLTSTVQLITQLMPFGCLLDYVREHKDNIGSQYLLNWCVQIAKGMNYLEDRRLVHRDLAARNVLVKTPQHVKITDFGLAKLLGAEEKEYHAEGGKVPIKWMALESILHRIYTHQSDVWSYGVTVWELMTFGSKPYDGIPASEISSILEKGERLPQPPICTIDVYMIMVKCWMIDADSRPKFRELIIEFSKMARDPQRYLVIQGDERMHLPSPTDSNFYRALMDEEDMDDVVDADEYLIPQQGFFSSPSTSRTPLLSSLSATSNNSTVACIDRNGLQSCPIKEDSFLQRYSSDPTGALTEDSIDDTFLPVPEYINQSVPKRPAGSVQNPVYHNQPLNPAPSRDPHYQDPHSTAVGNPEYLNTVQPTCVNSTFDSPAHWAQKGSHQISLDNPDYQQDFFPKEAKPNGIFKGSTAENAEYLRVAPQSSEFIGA

SMILES	IC50 [1]	IC50 (pEGFR in CUTO14 cells)	IC50 [2]	IC50 (Ba/F3 cells with EGFR WT)	IC50 [3]	IC50 [4]
C=CC(=O)N1CCC[C@@H]1COc1cnccc1-c1[nH]c2c(c1Nc1cccc(F)c1C)C(=O)NCC2 [Compound 140, (R)-2-(3-((1-acryloylpyrrolidin-2-yl)methoxy)pyridin-4-yl)-3-((3-fluoro-2-methylphenyl)amino)-1,5,6,7-tetrahydro-4H-pyrrolo[3,2-c]pyridin-4-one]	< 100 nM	< 100 nM	< 100 nM	100 to 1000 nM	< 100 nM	< 100 nM
C=CC(=O)N1CC[C@@H]1COc1cnccc1-c1[nH]c2c(c1Nc1cccc(Cl)c1OC)C(=O)NCC2 [Compound 145a, (R)-2-(3-((1-acryloylazetidin-2-yl)methoxy)pyridin-4-yl)-3-((3-chloro-2-methoxyphenyl)amino)-1,5,6,7-tetrahydro-4H-pyrrolo[3,2-c]pyridin-4-one]	< 100 nM	< 100 nM	< 100 nM	100 to 1000 nM	< 100 nM	< 100 nM
C=CC(=O)N1CCC[C@H]1C#Cc1cnccc1-c1[nH]c2c(c1Nc1cccc(F)c1OC)C(=O)NCC2 [Compound 147a, (S)-2-(3-((1-acryloylpyrrolidin-2-yl)ethynyl)pyridin-4-yl)-3-((3-fluoro-2-methoxyphenyl)amino)-1,5,6,7-tetrahydro-4H-pyrrolo[3,2-c]pyridin-4-one]	< 100 nM	< 100 nM	< 100 nM	< 100 nM	< 100 nM	< 100 nM
C=CC(=O)N1CCC[C@@H]1C#Cc1cnccc1-c1[nH]c2c(c1Nc1cccc(F)c1OC)C(=O)NCC2 [Compound 147b, (R)-2-(3-((1-acryloylpyrrolidin-2-yl)ethynyl)pyridin-4-yl)-3-((3-fluoro-2-methoxyphenyl)amino)-1,5,6,7-tetrahydro-4H-pyrrolo[3,2-c]pyridin-4-one]	< 100 nM	< 100 nM	< 100 nM	100 to 1000 nM	< 100 nM	< 100 nM
C=CC(=O)N1CCC[C@H]1COc1cnccc1-c1[nH]c2c(c1Nc1cccc(F)c1C)C(=O)NCC2 [Compound 467, 3-[(3-fluoro-2-methylphenyl)amino]-2-(3-[[(2S)-1-(prop-2-enoyl)pyrrolidin-2-yl]methoxy]pyridin-4-yl)-1H,5H,6H,7H-pyrrolo[3,2-c]pyridin-4-one]	< 100 nM	< 100 nM	< 100 nM	< 100 nM	< 100 nM	< 100 nM
COc1c(Cl)cccc1Nc1c(-c2ccncc2C#CC2(C(F)(F)F)CC2)[nH]c2c1C(=O)NCC2 [compound 528, 3-[(3-chloro-2-methoxyphenyl)amino]-2-(3-[2-[1-(trifluoromethyl)cyclopropyl]ethynyl]pyridin-4-yl)-1H,5H,6H,7H-pyrrolo[3,2-c]pyridin-4-one]		< 100 nM			< 100 nM	< 100 nM
COc1c(Cl)cccc1Nc1c(-c2ccncc2C#CC2(C(F)F)CC2)[nH]c2c1C(=O)NCC2 [compound 546]	< 100 nM	< 100 nM	< 100 nM	100 to 1000 nM	< 100 nM	< 100 nM
